Source: patent US20260335468A1, “MOLECULAR RADIOAFTERGLOW PROBES FOR CANCER RADIODYNAMIC THERANOSTICS” (NANYANG TECHNOLOGICAL UNIVERSITY, priority 2023, published 2026)

What was measured:
[1] = ·OH and other ROS detection (HPF) upon X-ray irradiation; format: physicochemical
Protocol: To study other ROS generation, fluorescence sensors DHR123 (for O2·^− detection) and HPF (for ·OH detection) were used. For O2·^− detection, DHR123 (10 PM) was added to a solution of IDPASu (10 M) in PBS (0.01 M pH 7.4, 50% DMSO), followed by X-ray irradiation at different doses of 5 mGy (250 μGy s^−1 for 20 s) and 2 Gy (100 mGy s^1 for 20 s). The fluorescence changes in DHR123 were recorded at λex of 505 nm and λem of 534 nm. For ·OH detection, HPF ([…]) was added in a solution of IDPASu (10 M) in PBS (0.01 M, pH 7.4, 50% DMF), followed by X-ray irradiation at different doses, namely, 5 mGy (250 μGy s^−1 for 20 s) and 2 Gy (100 mGy s^−1 for 20 s). The fluorescence changes in HPF were collected at ex of 450 nm and λem of 515 nm. The ROS production was calculated by the corresponding standard curve.

[2] = In vivo limit of detection of subcutaneously injected IDPASu (radio afterglow); set-up: species or system mouse (BALB/c nude); settings: subcutaneous injection, X-ray 5 mGy, LOD=3σ/k
Protocol: To test the LOD of IDPASu for in vivo RAI, 20 μl of the mixture solution of IDPASu at different concentrations (100.0, 50.0, 20.0, 10.0, 5.0, 1.0, 0.5 and 0 μM) and solubilizing agent (2-carboxyethyl)-o-cyclodextrin sodium salt (β-CD) at 100 μM was subcutaneously injected into the left flank of BALB/c nude mice (six weeks old). After 30 min, the left flank of mice were irradiated with X-rays at 5 mGy (250 μGy s^−1 for 20 s) as the other areas were protected by a 3.4-mm-thick lead shield with a notch under the X-ray irradiation. Radio afterglow signals were recorded. The detection limit was calculated using this equation: LOD=3σ/k, where a represents the s.d. of blank and k implies the slope of the radio afterglow intensities.

subcutaneous U87 tumour = assay: RDT of subcutaneous U87 tumour-bearing mice with IDPASu; format: in vivo, mouse (BALB/c nude), human U87; settings: intratumoral, X-ray total 0.3 Gy in three fractions
Protocol: To establish a subcutaneous glioblastoma mouse model, BALB/c nude mice (six weeks old, female) were anaesthetized with isoflurane (2.0%) and subcutaneously injected with human U87 or U87-Luc (2×10^6 per mouse) suspended in PBS (0.01 M, pH 7.4) on the left flank or bilateral flank of each mouse. The tumour size was calculated according to the formula V=½ab^2, where a and b are the longest and shortest diameter of the tumour, respectively. After tumour sizes reached ~70 mm^3, the mice were used for imaging and therapy. […] At 15 min post-injection, bioluminescence signals were recorded using an IVIS imaging system with an open filter and automatic acquisition time. […]
For subcutaneous tumour therapy, to study the X-ray dynamic activity of IDPASu, U87-tumour-bearing mice were randomly divided into four groups (PBS, PBS+X-ray, IDPASu and IDPASu+X-ray), which includes five mice per group. […] The tumour volume and body weight of mice were monitored every two days. […] The brain tumour size was monitored using bioluminescence signals of luciferin from the tumour site every three days. […]

COC(=C1C2CC3CC(C2)CC1C3)c1cc(O)c(I)cc1/C=C/C1=CC(=C(C#N)C#N)c2ccccc2S1 [IDPASu]
HPF+IDPASu (+X-ray) versus HPF+IDPASu (−X-ray), ·OH ([1]; 250 μGy s^−1 or 100 mGy s^−1 for 20 s): not significant | other ROS generation ([1]; X-ray irradiation): undetectable | limit of detection (LOD), in vivo imaging [2]: 49 nM | body weight loss (subcutaneous U87 tumour): no loss in body weight | tumour growth (subcutaneous U87 tumour): completely inhibited the tumour growth
